From the NIST ThermoML archive (doi:10.1021/je020125e)
Where “and” joins values, the source holds several entries; their conditions need not be identical. Equal entries are not always repeated.

Details: 101.33 kPa, Liquid, Hot wire method

CCCC(C)CC (stereo not given) [3-methylhexane]
Details	thermal conductivity [W/m/K]	thermal diffusivity
256.62 K	0.1236	–
257 K	0.1233	–
257.38 K	0.1231	–
257.59 K	–	8.59e-08 m2/s
258.63 K	–	8.5e-08 m2/s
259.54 K	–	8.43e-08 m2/s
269.72 K	0.1196	–
270.11 K	0.1193	–
270.44 K	0.1191	–
270.7 K	–	8.14e-08 m2/s
271.73 K	–	8.1e-08 m2/s
272.58 K	–	8.04e-08 m2/s
284.9 K	0.115	–
285.32 K	0.1148	–
285.66 K	0.1146	–
285.92 K	–	7.81e-08 m2/s
287.01 K	–	7.78e-08 m2/s
287.89 K	–	7.72e-08 m2/s
296.55 K	0.1113	–
296.95 K	0.1113	–
297.35 K	0.111	–
297.62 K	–	7.5e-08 m2/s
298.65 K	–	7.47e-08 m2/s
299.67 K	–	7.41e-08 m2/s
311.54 K	0.1073	–
311.97 K	0.107	–
312.34 K	0.1068	–
312.6 K	–	7.22e-08 m2/s
313.66 K	–	7.08e-08 m2/s
314.6 K	–	7.07e-08 m2/s
321.52 K	0.1046	–
321.98 K	0.1042	–
322.34 K	0.104	–
322.62 K	–	7.02e-08 m2/s
323.75 K	–	6.94e-08 m2/s
324.66 K	–	6.86e-08 m2/s and 6.87e-08 m2/s
332.24 K	0.1017	–
332.69 K	0.1013	–
333.09 K	0.1011	–
333.3 K	–	6.69e-08 m2/s
334.41 K	–	6.61e-08 m2/s
335.4 K	–	6.61e-08 m2/s
343.42 K	0.09857	–
343.89 K	0.09831	–
344.28 K	0.09813	–
344.3 K	0.09807	–
344.46 K	–	6.42e-08 m2/s
345.61 K	–	6.37e-08 m2/s
346.56 K	–	6.32e-08 m2/s
346.62 K	–	6.37e-08 m2/s

CCCCCC(C)C [2-methylheptane]
Details	thermal conductivity [W/m/K]	thermal diffusivity [m2/s]
259.12 K	0.1244	–
259.33 K	0.1242	–
259.51 K	0.1242	–
260.04 K	–	8.23e-08
260.63 K	–	8.22e-08
261.12 K	–	8.22e-08
277.53 K	0.1195	–
277.77 K	0.1194	–
277.96 K	0.1193	–
278.48 K	–	7.83e-08
279.11 K	–	7.84e-08
279.63 K	–	7.81e-08
295.72 K	0.1145	–
295.95 K	0.1144	–
296.16 K	0.1143	–
296.69 K	–	7.41e-08
297.31 K	–	7.42e-08
297.85 K	–	7.39e-08
313.83 K	0.1097	–
314.07 K	0.1095	–
314.3 K	0.1095	–
314.83 K	–	7.05e-08
315.46 K	–	7.04e-08
316.05 K	–	7.06e-08
327.74 K	0.1061	–
328 K	0.1059	–
328.23 K	0.1058	–
328.77 K	–	6.82e-08
329.44 K	–	6.79e-08
330.02 K	–	6.78e-08

CCCCC(C)CC (stereo not given) [3-methylheptane]
Details	thermal conductivity [W/m/K]	thermal diffusivity [m2/s]
259.08 K	0.1255	–
259.32 K	0.1253	–
259.58 K	0.1252	–
260.01 K	–	8.29e-08
260.65 K	–	8.28e-08
261.32 K	–	8.27e-08
277.99 K	0.1204	–
278.23 K	0.1203	–
278.37 K	0.1202	–
278.95 K	–	7.83e-08
279.57 K	–	7.83e-08
279.93 K	–	7.84e-08
297.36 K	0.115	–
297.63 K	0.115	–
297.91 K	0.115	–
298.32 K	–	7.41e-08
299.02 K	–	7.44e-08
299.76 K	–	7.47e-08
315.56 K	0.1101	–
315.84 K	0.1101	–
316.12 K	0.1099	–
316.52 K	–	6.98e-08
317.22 K	–	7e-08
317.93 K	–	6.98e-08
331.93 K	0.1058	–
332.21 K	0.1057	–
332.51 K	0.1056	–
332.93 K	–	6.7e-08
333.64 K	–	6.7e-08
334.38 K	–	6.69e-08
